Laboratory results published in patent US9944019B2, “Tip-loaded microneedle arrays for transdermal insertion” (University of Pittsburgh—Of the Commonwealth System of …, priority 2012, dated 2018).

System: epidermal cells
Assay: Apoptosis in living human skin organ cultures, green fluorescent TUNEL assay
Assay type: cell-based
Details: arrays removed after 5 minutes, 72 hours of exposure; pyramidal CMC-microneedle arrays
Method: Cytoxan® was integrated at a concentration of 5 mg/g of CMC, enabling delivery of approximately about 140 μg per array. This is a therapeutically relevant concentration based on the area of skin targeted, yet well below levels associated with systemic toxicities. Living human skin organ cultures were used to assess the cytotoxicty of Cytoxan®. Cytoxan® was delivered by application of arrays to skin explants as we previously described. Arrays and residual material were removed 5 minutes after application, and after 72 hours of exposure, culture living skin explants were cryo-sectioned and fixed.

O=P1(N(CCCl)CCCl)NCCCO1 (stereo not shown) [Cytoxan®, cyclophosphamide]
apoptosis (TUNEL): extensive apoptosis of epidermal cells
